Reference: patent publication US20200181284A1, “EPIGENETIC INHIBITORS FOR SENSITIZING HEMATOLOGIC OR OTHER MALIGNANCIES TO GLUCOCORTICOID THERAPY” (UNIVERSITY OF SOUTHERN CALIFORNIA, priority 2017, published 2020)

Key:
[1] = tested on: LAX7R and LAX56 primary human B-ALL cells; assay: Survival of primary B-ALL cells co-cultured with OP-9 feeder cells (Annexin V/7AAD); assay type: cell-based; settings: 100-200 nM Dex alone, 3 or 5 days
Protocol: Primary ALL cells (LAX7R and LAX56) were established from mouse xenografts derived from patient samples (Adam et al., 2017; Hsieh et al., 2013). They were cultured in 24 well tissue-culture plates on irradiated OP-9 cells with growth medium containing MEM-α with 20% heat-inactivated fetal bovine serum, and 100 IU/ml penicillin and 100 μg/ml streptomycin. On day 3 and day 5 after the addition of drugs, ALL cells were collected, and apoptosis was assessed using PE Annexin V Apoptosis Detection Kit with 7-AAD.
As shown FIGS. 41A-1, 41A-2, 41B-1, and 41B-2, LAX7R (FIGS. 41A-1 and 41A-2) or LAX56 (FIGS. 41B-1 and 41B-2) primary human B-ALL cells were co-cultured with OP-9 feeder cells for 3 days (left) or 5 days (right) in the presence of the indicated drugs, and cell survival was determined by staining with Annexin/7AAD. p-value was calculated using a paired t-test, and different symbols were used to indicate p-values between different groups.+indicates statistical significance (+p≤0.05, ++p≤0.01 and + + + p≤0.001) between Dexamethasone or AZD2811 treated group and DMSO control group; # indicates statistical significance (#p≤0.05, ##p≤0.01 and # # # p≤0.001) between AZD2811+Dexamethasone combination group and AZD2811 group; * indicates statistical difference (*p≤0.05, **p≤0.01, * * *p≤0.001) between combination group and respective Dexamethasone treated groups. Values shown are mean and SD for 3 biological replicates, which are representative of 3 independent experiments.

[2] = tested on: relapsed B-ALL cells (ALL121); assay: PDX model of ALL: NSG mice engrafted with ALL121, spleen size and human ALL cells in spleen; assay type: in vivo; settings: dex monotherapy 7.5 mg/kg daily, two weeks
Source text: As proof of concept, we tested this combination in a PDX model of ALL.

[3] = tested on: NALM-6 cells; assay: shRNA screen: selection of infected NALM-6 cells with dex, viability after each round; assay type: cell-based, human; settings: for viability at 0.05 µM: Homo sapiens, 50 nM dexamethasone
Protocol: Transduction: NALM-6 cells were grown in T-175 flasks maintaining a cell density below 2 million cells/ml until a sufficient number of cells were obtained. In order to obtain a sufficient number of cells infected with each shRNA to measure both enrichment and depletion in response to dex selection, we sought to infect >1000 cells with each shRNA. In order to minimize double infection, we targeted an infection rate of ˜30%. For the Cancer library, we estimated that for 1000× coverage of 54,775 shRNAs at a 30% infection rate, we would have to start with ˜200 million cells. To ensure optimal infection, NALM-6 cells were plated at density of 1.5 million cells/ml in 6 well plates. Virus was added at a ratio of 1:10 viral supernatant/NALM-6 culture volume. Cells were the spinfected at 1000×g, 33° C., for 2 hours in the presence of 8 µg/ml polybrene. Cells were then washed in PBS, resuspended in fresh RPMI+10% FBS, and allowed to recover. Our actual infection rate was ˜70%, as measured by flow cytometry using the mCherry marker of the pMK1098 vector, for an approximate coverage of 2000 cells for each shRNA. Cells were then selected for infection using 0.5 µg/ml puromycin for 2 days, washed, and allowed to recover. The infected cells were then expanded and split into 5 pools: Infected (Time 0 or T0), Infected that would be untreated (TF), and three pools that would be treated with dex (R1-3). T0 and TF was composed of 100 million cells. T0 was frozen immediately, and TF was allowed to grow to a density no greater than 3 million cells/ml through the course of the experiment. Since we expected ˜80% death upon treatment, we started with 500 million cells each for R1-3.
Selection: Previous attempts at the screen had been hampered by inconsistent infection and selection with dex. We therefore decided to split TF and R1-3 into two experiments and treat with 50 nM dex, which kills ˜80% of NALM-6 cells in 3 days, and 1 pM dex, which kills >90%. TF samples were treated with equal volumes of DMSO vehicle. A separate TF sample was culture for both the 50 nM and 1 pM experiments. Cells were treated with each of these concentrations for three days, washed, allowed to recover, then treated two more times. From infection to the end of the experiment took 35 days for 50 nM dex and 46 days for 1 pM.
AGEK Screen: Based on the results of the Cancer panel screen, we elected to screen the three other panels (Apoptosis, Gene Expression, Kinases) under 50 nM selection by dex. The screen was performed largely as described above, but our infection rate was <30% for a coverage of ˜900 cells/shRNA.

[4] = tested on: NALM-6; assay: Cell death assay (PrestoBlue viability, 3 days); assay type: cell-based; settings: Homo sapiens
Protocol: Cell death assays: We used PrestoBlue to measure cell viability in response to knockdown and treatment. Cells were grown to a density of 250,000 cell/ml, then dispensed into black tissue culture plates and grown overnight. In the morning, cells were treated. For both CAL-101 (Selleckchem, S2226) and dex (Sigma, D4902), viability was measured after 3 days. As PrestoBlue measures NADPH/NADH metabolites, the balance of which can be affected by GC treatment, we performed frequent cell count spot checks manually by trypan blue exclusion to ensure that fluorescence measurements reflected true viability. Both CAL-101 and dex were dissolved in ethanol, and used 1:1000 in cell culture for a final ethanol concentration of 0.1%. […] Viabilities and EC50 were then calculated using four parameter non-least squares fitting using Prism 6. qPCR of Causative genes: Cells were grown to a density of 1 million cells/ml, then aliquoted into 6 well plates in the afternoon, then grown overnight. […]
The optimal signal was determined by incubating cells with 1 ^M dex for 0, 4, 8, and 24 hours. […] Each experiment was performed at least three times, and analyzed using GraphPad (Prism 6). Significant differences between drug and control and between either drug alone and combinations was determined by two sided Student's t-test (P-Value<0.05). […]

[5] = tested on: RCH-ACV; assay: Cell death assay (PrestoBlue viability, 3 days); assay type: cell-based, human
Protocol: (§1) Cell death assays: We used PrestoBlue to measure cell viability in response to knockdown and treatment. Cells were grown to a density of 250,000 cell/ml, then dispensed into black tissue culture plates and grown overnight. In the morning, cells were treated. For both CAL-101 (Selleckchem, S2226) and dex (Sigma, D4902), viability was measured after 3 days. As PrestoBlue measures NADPH/NADH metabolites, the balance of which can be affected by GC treatment, we performed frequent cell count spot checks manually by trypan blue exclusion to ensure that fluorescence measurements reflected true viability. Both CAL-101 and dex were dissolved in ethanol, and used 1:1000 in cell culture for a final ethanol concentration of 0.1%. Combination treatments were performed in triplicate in 384 well plates with 20 dilutions of dex from 10^M to 0 and 9 dilutions of CAL-101 from 10^M to 0. Viabilities and EC50 were then calculated using four parameter non-least squares fitting using Prism 6. qPCR of Causative genes: Cells were grown to a density of 1 million cells/ml, then aliquoted into 6 well plates in the afternoon, then grown overnight. Cells were then treated with the drugs and times indicated, at which point cells were spun down at 400 g for 5 minutes, the medium aspirated, and the pellet resuspended in 0.7 ml Qiazol/Trizol and frozen. RNA was then isolated using the miRNAeasy protocol. cDNA was then prepared form 1^g of RNA suing SuperScript3, and qPCR performed using BioRad iQ mix. Primers for qPCR were designed using the IDT web site, then tested for each gene. […] Expression levels for each gene were corrected for primer efficiency, normalized to RPL19, then compared to controls (Pfaffl, 2001).
(§2) The optimal signal was determined by incubating cells with 1 ^M dex for 0, 4, 8, and 24 hours. […] Cells were incubated with dex alone, CAL-101 alone, and in combination for 24 hours, then harvested and qPCR performed as described above. Each experiment was performed at least three times, and analyzed using GraphPad (Prism 6). Significant differences between drug and control and between either drug alone and combinations was determined by two sided Student's t-test (P-Value<0.05).
(§3) Three cell lines (NALM6, SUP-B15, and RCH-ACV), one resistant patient sample (HM3101), and one relapsed Phlike xenograft (ALL121) were incubated with increasing concentrations of dex or CAL-101 for 3 days. Cell viability was measured by PrestoBlue staining. Curves, values, and errors are based on at least 3 replicates. Bar plot of the EC50, calculated by four-parameter least-squares fitting (Both plotted and calculated in GraphPad Prism).

[6] = tested on: SUP-B15; assay: Cell death assay (PrestoBlue viability, 3 days); assay type: cell-based, human; settings: Homo sapiens
Protocol: as §1, §2, §3

C[C@@H]1C[C@H]2[C@@H]3CCC4=CC(=O)C=C[C@]4(C)[C@@]3(F)[C@@H](O)C[C@]2(C)[C@@]1(O)C(=O)CO [dex, dexamethasone]
cell survival [1]: 20-60% | effect on spleens (spleen size) [2]: no effect | NALM-6 cells killed ([3]; 1 pM dex): > 90% | NALM-6 cells killed ([3]; 50 nM dex, 3 days): ~80% | viability at 0.05 µM ([3]; NALM-6, Apoptosis, Gene Expression, and Kinase Panels, treatment number 1): 52% | viability at 0.05 µM ([3]; NALM-6, Apoptosis, Gene Expression, and Kinase Panels, treatment number 2): 66% | viability at 0.05 µM ([3]; NALM-6, Apoptosis, Gene Expression, and Kinase Panels, treatment number 3): 65% | viability at 0.05 µM ([3]; NALM-6, Cancer Panel, treatment number 1): 18% | viability at 0.05 µM ([3]; NALM-6, Cancer Panel, treatment number 2): 72% | viability at 0.05 µM ([3]; NALM-6, Cancer Panel, treatment number 3): 58% | EC50 ([4]; NALM-6, 72 h, NALM6, viability after 3 days, read-out: EC50 for dex): 3.9 nM | EC90 ([4]; NALM-6, read-out: approximately the EC90 for dex): ~62.5 nM | EC50 ([5]; Homo sapiens, 72 h, viability after 3 days, estimate, read-out: EC50 for dex): 500 nM | viability maintained ([5]; even at the highest dex concentrations): ~50% | EC50 ([6]; 72 h, SUP-B15, viability after 3 days, read-out: EC50 for dex): 1.6 nM | EC90 ([6]; SUP-B15, read-out: approximately the EC90 for dex): ~4 nM
